Consider 15 compounds from US20230089867A1, “CYCLIC PENTAMER COMPOUNDS AS PROPROTEIN CONVERTASE SUBTILISIN/KEXIN TYPE 9 (PCSK9) INHIBITORS FOR THE TREATMENT OF METABOLIC DISORDER” (Novartis AG, priority 2018, published 2023).

This test deals with human PCSK9 (Homo sapiens, UniProt Q8NBP7). The experiment in a line: PCSK9 ligand binding TR-FRET assay (interference with binding of human PCSK9 to human LDLR). The conditions noted are these: for Max % inhibition: PCSK9 FRET assay, efficacy (Amax), 100% = 1 uM unlabeled human PCSK9, 0% = DMSO; for IC50: TR-FRET, human PCSK9 Alexa Fluor 647 / human LDLR extracellular domain-Europium Kryptate, read-out: PCSK9 FRET Assay IC50. In outline: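 Threefold compound dilutions were pre-incubated 30 min with PCSK9, after which 4 nM Europium Kryptate-tagged human LDLR ectodomain was added for a further 2 h.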
Chain of human PCSK9 (Q8NBP7 153-692): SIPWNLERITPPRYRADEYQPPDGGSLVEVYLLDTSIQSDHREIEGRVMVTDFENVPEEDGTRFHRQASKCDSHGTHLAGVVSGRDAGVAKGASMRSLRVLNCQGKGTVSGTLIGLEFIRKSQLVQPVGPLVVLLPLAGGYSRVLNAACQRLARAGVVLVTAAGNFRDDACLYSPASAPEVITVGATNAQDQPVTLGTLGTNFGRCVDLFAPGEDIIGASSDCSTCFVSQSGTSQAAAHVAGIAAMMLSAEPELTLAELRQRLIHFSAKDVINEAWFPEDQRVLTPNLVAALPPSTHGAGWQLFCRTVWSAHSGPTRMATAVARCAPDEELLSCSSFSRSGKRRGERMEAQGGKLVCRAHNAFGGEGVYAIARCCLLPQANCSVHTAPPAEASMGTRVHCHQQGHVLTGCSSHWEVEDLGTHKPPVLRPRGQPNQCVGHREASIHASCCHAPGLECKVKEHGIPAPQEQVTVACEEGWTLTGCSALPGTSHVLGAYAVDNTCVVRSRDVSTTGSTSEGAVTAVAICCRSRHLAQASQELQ
Chain of human PCSK9 (Q8NBP7 31-152 partner limits assumed): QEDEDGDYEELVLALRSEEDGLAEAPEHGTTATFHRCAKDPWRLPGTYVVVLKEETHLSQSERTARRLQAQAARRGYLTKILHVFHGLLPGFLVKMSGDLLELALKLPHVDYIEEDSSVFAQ

The IC50 is the concentration that inhibits the measured activity by half. Consider `COC[C@@H]1NC(=O)[C@H](C)N(Cc2ccc(Cl)cc2Oc2ccc(-c3nnc4n3CCN(C(=O)[C@H]3CCNC3)C4)cc2)C(=O)C[C@@H](Cc2ccccc2)C(=O)N(C)[C@@H](C)CNC(=O)C[C@H](Cc2ccc(Cl)cc2)N(C)C1=O` [Compound 131, (2S,5S,8S,13S,16R)-16-benzyl-1-(4-chloro-2-(4-(7-((S)-pyrrolidine-3-carbonyl)-5,6,7,8-tetrahydro-[1,2,4]triazolo[4,3-a]pyrazin-3-yl)phenoxy)benzyl)-8-(4-chlorobenzyl)-5-(methoxymethyl)-2,7,13,14-tetramethyl-1,4,7,11,14-pentaazacyclooctadecane-3,6,10,15,18-pentaone], for which the Max % inhibition came out at 90.72% and the IC50 was 9.9 nM.
The matching figures for `CCC[C@@H]1CC(=O)N(Cc2ccc(Cl)cc2Oc2ccc(-c3cnc(CN(C)C)n3C)cc2)[C@@H](C)C(=O)N[C@@H](COC)C(=O)N(C)[C@@H](Cc2ccc(Cl)cc2)CC(=O)N[C@H]2CCCC[C@@H]2N(C)C1=O` [Compound 263, (4S,7S,10S,14R,16aS,20aS)-11-(4-chloro-2-(4-(2-((dimethylamino)methyl)-1-methyl-1H-imidazol-5-yl)phenoxy)benzyl)-4-(4-chlorobenzyl)-7-(methoxymethyl)-5,10,16-trimethyl-14-propylhexadecahydrobenzo[l][1,4,7,11,14]pentaazacyclooctadecine-2,6,9,12,15(3H)-pentaone]: 76.79% and 5.3 nM.
In the same order, the values of `COC[C@@H]1NC(=O)[C@H](CCN)N(Cc2ccc(Cl)cc2Oc2ccc(-c3cnc(CN(C)C)n3C)cc2)C(=O)C[C@@H](Cc2ccccc2)C(=O)N(C)[C@H]2CCCC[C@@H]2NC(=O)C[C@H](Cc2ccc(Cl)cc2)N(C)C1=O` (single isomer, unassigned) [Compound 109] are 76.18% and 7.6 nM.
In the same order, the values of `COC[C@@H]1NC(=O)[C@H](C)N(Cc2ccc(Cl)cc2Oc2ccc(-n3cnc(C(=O)NCCO)c3C)cc2)C(=O)C[C@@H](Cc2ccccc2)C(=O)N(C)[C@@H](C)CNC(=O)C[C@H](Cc2ccc(Cl)cc2)N(C)C1=O` [Compound 188, 1-(4-(2-(((2S,5S,8S,13S,16R)-16-benzyl-8-(4-chlorobenzyl)-5-(methoxymethyl)-2,7,13,14-tetramethyl-3,6,10,15,18-pentaoxo-1,4,7,11,14-pentaazacyclooctadecan-1-yl)methyl)-5-chlorophenoxy)phenyl)-N-(2-hydroxyethyl)-5-methyl-1H-imidazole-4-carboxamide] are 75.17% and 16.2 nM.
For `COC[C@@H]1NC(=O)[C@H](C)N(Cc2ccc(Cl)cc2Oc2ccc(-c3cnc([C@@H](C)N(C)C)n3C)cc2)C(=O)C[C@@H](Cc2ccccc2)C(=O)N(C)[C@@H](C)[C@H](C)NC(=O)C[C@H](Cc2ccc(Cl)cc2)N(C)C1=O` [Compound 261, (2S,5S,8S,12S,13S,16R)-16-benzyl-1-(4-chloro-2-(4-(2-((R)-1-(dimethylamino)ethyl)-1-methyl-1H-imidazol-5-yl)phenoxy)benzyl)-8-(4-chlorobenzyl)-5-(methoxymethyl)-2,7,12,13,14-pentamethyl-1,4,7,11,14-pentaazacyclooctadecane-3,6,10,15,18-pentaone], the Max % inhibition is listed as 111.41% and the 50% inhibitory concentration (IC50) worked out at 2 nM.
In the same order, the values of `COC[C@@H]1NC(=O)[C@H](C)N(Cc2c(Oc3ccc(-c4cnc(CN(C)C)n4C)cc3)cccc2OC(F)F)C(=O)CCC(=O)N(C)[C@H]2CCCC[C@@H]2NC(=O)C[C@H](Cc2ccc(Cl)cc2)N(C)C1=O` [Compound 196, (4S,7S,10S,16aS,20aS)-4-(4-chlorobenzyl)-11-(2-(difluoromethoxy)-6-(4-(2-((dimethylamino)methyl)-1-methyl-1H-imidazol-5-yl)phenoxy)benzyl)-7-(methoxymethyl)-5,10,16-trimethylhexadecahydrobenzo[l][1,4,7,11,14]pentaazacyclooctadecine-2,6,9,12,15(3H)-pentaone] are 97.92% and 3 nM.
Turning to `COC[C@@H]1NC(=O)[C@H](C)N(Cc2ccc(Cl)cc2Oc2ccc(-c3cnc(CN4CCCC4)n3C)cc2)C(=O)C[C@@H](Cc2cccc(F)c2)C(=O)N(C)[C@@H](C)CNC(=O)C[C@H](Cc2ccc(Cl)cc2)N(C)C1=O` [Compound 155, (2S,5S,8S,13S,16R)-1-(4-chloro-2-(4-(1-methyl-2-(pyrrolidin-1-ylmethyl)-1H-imidazol-5-yl)phenoxy)benzyl)-8-(4-chlorobenzyl)-16-(3-fluorobenzyl)-5-(methoxymethyl)-2,7,13,14-tetramethyl-1,4,7,11,14-pentaazacyclooctadecane-3,6,10,15,18-pentaone], the Max % inhibition is 98.43% and the IC50 stood at 0.8 nM.
The matching figures for `COC[C@@H]1NC(=O)[C@H](C)N(Cc2ccc(Cl)cc2Oc2cccc(C(=O)NC3CCN(C)CC3)c2)C(=O)C[C@@H](Cc2ccccc2)C(=O)N(C)[C@@H](C)CNC(=O)C[C@H](Cc2ccc(Cl)cc2)N(C)C1=O` [Compound 118, 3-(2-(((2S,5S,8S,13S,16R)-16-benzyl-8-(4-chlorobenzyl)-5-(methoxymethyl)-2,7,13,14-tetramethyl-3,6,10,15,18-pentaoxo-1,4,7,11,14-pentaazacyclooctadecan-1-yl)methyl)-5-chlorophenoxy)-N-(1-methylpiperidin-4-yl)benzamide]: 65.13% and 24.6 nM.
In the same order, the values of `COC[C@@H]1NC(=O)[C@H](C)N(Cc2ccc(Cl)cc2Oc2ccc(-c3cnc([C@@H](C)N4CCCC4)n3C)cc2)C(=O)C[C@@H](Cc2ccccc2)C(=O)N(C)[C@H]2CCCC[C@@H]2NC(=O)C[C@H](Cc2ccc(Cl)cc2)N(C)C1=O` [Compound 152, (4S,7S,10S,14R,16aS,20aS)-14-benzyl-11-(4-chloro-2-(4-(1-methyl-2-((R)-1-(pyrrolidin-1-yl)ethyl)-1H-imidazol-5-yl)phenoxy)benzyl)-4-(4-chlorobenzyl)-7-(methoxymethyl)-5,10,16-trimethylhexadecahydrobenzo[l][1,4,7,11,14]pentaazacyclooctadecine-2,6,9,12,15(3H)-pentaone] are 107.64% and 1.2 nM.
The matching figures for `C[C@H]1CNC(=O)C[C@H](Cc2ccc(Cl)cc2)N(C)C(=O)[C@H](CO)NC(=O)[C@H](C)N(Cc2ccc(Cl)cc2Oc2ccc3c(c2)C(=O)N(C2CCNCC2)C3)C(=O)C[C@@H](Cc2ccccc2)C(=O)N1C` [Compound 125, (2S,5S,8S,13S,16R)-16-benzyl-1-(4-chloro-2-((3-oxo-2-(piperidin-4-yl)isoindolin-5-yl)oxy)benzyl)-8-(4-chlorobenzyl)-5-(hydroxymethyl)-2,7,13,14-tetramethyl-1,4,7,11,14-pentaazacyclooctadecane-3,6,10,15,18-pentaone]: 60.93% and 28 nM.
As for `COC[C@@H]1NC(=O)[C@H](C)N(Cc2ccc(Cl)cc2Oc2ccc(-c3cnc(CN(C)C)n3C)cc2)C(=O)C[C@@H](Cc2ccc(F)cn2)C(=O)N(C)[C@@H](C)CNC(=O)C[C@H](Cc2ccc(Cl)cc2)N(C)C1=O` [Compound 45, (2S,5S,8S,13S,16R)-1-(4-chloro-2-(4-(2-((dimethylamino)methyl)-1-methyl-1H-imidazol-5-yl)phenoxy)benzyl)-8-(4-chlorobenzyl)-16-((5-fluoropyridin-2-yl)methyl)-5-(methoxymethyl)-2,7,13,14-tetramethyl-1,4,7,11,14-pentaazacyclooctadecane-3,6,10,15,18-pentaone], the Max % inhibition came to 95.96% and the IC50 stood at 2.2 nM.
For the compound `COC[C@@H]1NC(=O)[C@H](C)N(Cc2ccc(Cl)cc2Oc2ccc(-c3cnc(CN4CC5(COC5)C4)n3C)cc2)C(=O)C[C@@H](Cc2ccccc2)C(=O)N(C)[C@@H](C)CNC(=O)C[C@H](Cc2ccc(Cl)cc2)N(C)C1=O` [Compound 189, (2S,5S,8S,13S,16R)-1-(2-(4-(2-(2-oxa-6-azaspiro[3.3]heptan-6-ylmethyl)-1-methyl-1H-imidazol-5-yl)phenoxy)-4-chlorobenzyl)-16-benzyl-8-(4-chlorobenzyl)-5-(methoxymethyl)-2,7,13,14-tetramethyl-1,4,7,11,14-pentaazacyclooctadecane-3,6,10,15,18-pentaone], the Max % inhibition is 95.01% and the IC50 turned out to be 1.4 nM.
The matching figures for `COC[C@@H]1NC(=O)[C@H](C)N(Cc2ccc(Cl)cc2Oc2ccc(-c3cnc(CN4CCCC4)n3C)cc2)C(=O)C[C@@H](Cc2cccc(F)c2F)C(=O)N(C)[C@@H](C)CNC(=O)C[C@H](Cc2ccc(Cl)cc2)N(C)C1=O` [Compound 67, (2S,5S,8S,13S,16R)-1-(4-chloro-2-(4-(1-methyl-2-(pyrrolidin-1-ylmethyl)-1H-imidazol-5-yl)phenoxy)benzyl)-8-(4-chlorobenzyl)-16-(2,3-difluorobenzyl)-5-(methoxymethyl)-2,7,13,14-tetramethyl-1,4,7,11,14-pentaazacyclooctadecane-3,6,10,15,18-pentaone]: 96.63% and 0.6 nM.
The matching figures for `COC[C@@H]1NC(=O)[C@H](C)N(Cc2cccc(F)c2Oc2ccc(-c3cnc(CN(C)C)n3C)cc2)C(=O)C[C@@H](Cc2ccccc2)C(=O)N(C)[C@@H](C)CNC(=O)C[C@H](Cc2ccc(Cl)cc2)N(C)C1=O` [Compound 232, (2S,5S,8S,13S,16R)-16-benzyl-8-(4-chlorobenzyl)-1-(2-(4-(2-((dimethylamino)methyl)-1-methyl-1H-imidazol-5-yl)phenoxy)-3-fluorobenzyl)-5-(methoxymethyl)-2,7,13,14-tetramethyl-1,4,7,11,14-pentaazacyclooctadecane-3,6,10,15,18-pentaone]: 96.17% and 5.7 nM.
The matching figures for `COC[C@@H]1NC(=O)C(C)N(Cc2ccc(Cl)cc2Oc2ccc(-c3cnc(CN(C)C)n3C)cc2)C(=O)C[C@@H](Cc2ccccc2)C(=O)N(C)[C@H]2CCCC[C@@H]2NC(=O)C[C@H](Cc2ccc(Cl)cc2)N(C)C1=O` (single isomer, unassigned) [Compound 58]: 103.43% and 9.3 nM.
